Experimental data taken from article PMC7321065, “Discovery of New Schiff Bases Tethered Pyrazole Moiety: Design, Synthesis, Biological Evaluation, and Molecular Docking Study as Dual Targeting DHFR/DNA Gyrase Inhibitors with Immunomodulatory Activity” (Molecules, 2020).
Values after ≈ are worked out from the molar mass of the structure shown.

Key:
E. coli ATCC BAA-196 [1] = assay: Inhibition zone against MDRB, agar plate diffusion; format: cell-based
Enterococcus faecalis [2] = assay: Inhibition zone, agar plate diffusion; format: cell-based; conditions: read-out: Inhibition zone (IZ)
Experimental: (§1) Antimicrobial activities of the newly formed Schiff bases (6a–d, 7a–d, 8a–d, and 9a–d) and reference drugs were evaluated against three Gram-positive, three Gram-negative, and two fungi strain at Al-Azhar University, Cairo, Egypt. The inhibition zones (IZ, in mm ± standard deviation) and the minimal inhibitory concentration (MIC) (μg/mL) were determined by the conventional paper disk diffusion method.
(§2) In Vitro Antimicrobial Activities
(§3) The antimicrobial activities inhibition zone (IZ, mm±standard deviation) of pyrazole Schiff bases ( 6a-d , 7a-d, 8a-d and 9a-d ) was measurement according to the agar plate diffusion method. Briefly, 100 µl of the […]
(§4) […] of each sample (at 0.5 mg/mL) was added to each well (10 mm diameter holes cut in the agar gel). The plates were incubated for 24 h at 37 °C (for bacteria and yeast) and for 72 h at 27 °C (for filamentous fungi), each test was repeated three times. After incubation, the microorganism's growth was observed. […]
(§5) drugs while Amphotericin B was used as standard antifungal drug. The resulting inhibition zone diameters were measured in millimeters and used as criterion for the antimicrobial activity. Solvent controls (DMSO) were included in every experiment as negative controls. DMSO was used for dissolving […]
(§6) the tested microorganisms. […]

Bacillus subtilis [3] = assay: Inhibition zone, agar plate diffusion; format: cell-based; conditions: read-out: Inhibition zone (IZ)
Experimental: as §1, §2, §3, §4, §5, §6

Pseudomonas aeruginosa [4] = assay: Inhibition zone, agar plate diffusion; format: cell-based; conditions: read-out: Inhibition zone (IZ)
Experimental: as §1, §2, §3, §4, §5, §6

Escherichia coli [5] = assay: Inhibition zone, agar plate diffusion; format: cell-based; conditions: read-out: Inhibition zone (IZ)
Experimental: as §1, §2, §3, §4, §5, §6

E. coli ATCC BAA-196 [6] = assay: MIC/MBC against MDRB, paper disk diffusion; format: cell-based; conditions: Escherichia coli, ATCCBAA196
Text: (§7) The inhibition zone (IZ, mm±standard deviation) of pyrazole Schiff bases ( 6b, 7b, 7c, 8a, 8d and 9b) was
(§8) measurement according to the agar plate diffusion method against a panel of multidrug-resistant bacteria
(MDRB). […]

S. aureus ATCC 33591 = assay: MIC/MBC against MDRB, paper disk diffusion; format: cell-based; conditions: Staphylococcus aureus, ATCC33591
Text: as §7, §8
(MDRB). […]

[7] = test system: P. aeruginosa ATCC BAA-2111; assay: MIC/MBC against MDRB, paper disk diffusion; format: cell-based; conditions: Pseudomonas aeruginosa, ATCCBAA2111
Text: as §7, §8
(MDRB). […]

[8] = test system: S. aureus ATCC 43300 (MRSA); assay: MIC/MBC against MDRB, paper disk diffusion; format: cell-based; conditions: Staphylococcus aureus
Text: as §7, §8
(MDRB). […]

[9] = test system: hepatocellular carcinoma cell line (HepG2); assay: Antiproliferative activity, MTT assay; format: cell-based, human; conditions: Homo sapiens, HepG2, 48 h, read-out: IC50 HepG-2
Experimental: (§9) 3-[4, 5-Dimethyl-2-thiazolyl)-2, 5-diphenyl-2 H-tetrazolium bromide (MTT) protocol is based on the cleavage of the tetrazolium salt by mitochondrial dehydrogenases in viable cells. Cells were dispensed in a 96 well sterile microplate (5 x 10^4 cells/well), and incubated at 37 °C with series of different concentrations, in DMSO, of each tested compound or Doxorubicin ® (positive control) for 48 h in a serum free medium prior to the MTT assay. After incubation, media were carefully removed, 40 µL of MTT (2.5 mg/mL) were added to each well and then incubated for an additional 4 h. The purple formazan dye crystals were solubilized by the addition of 200 µL of DMSO. The absorbance was measured at 590 nm using a SpectraMax® Paradigm® Multi-Mode microplate reader. The relative cell viability was expressed as the mean percentage of viable cells compared to the untreated control cells.
(§10) All experiments were conducted in triplicate and repeated in three different days. All the values were represented as mean ± SD. IC 50s were determined by probit analysis using SPSS software program (SPSS

[10] = test system: mammary gland breast cancer cell line (MCF-7); assay: Antiproliferative activity, MTT assay; format: cell-based, human; conditions: Homo sapiens, MCF7, 48 h, read-out: IC50 MCF-7
Experimental: as §9, §10

Fusarium oxysporum [11] = assay: MIC/MFC, paper disk diffusion; format: cell-based; conditions: Fusarium oxysporum
Experimental: as §1
(§11) In Vitro Antimicrobial Activities […]
(§12) DMSO was used for dissolving […]
(§13) the tested microorganisms.
(§14) The minimum inhibitory concentration (MIC), the minimum bactericidal concentration (MBC, µg/ml) and […]
(§15) and 9b) were determined by the conventional technique termed paper disk diffusion, by applying paper […]
(§16) Bacteria were grown on nutrient agar medium, while fungi and yeast were grown on Sabouraud agar medium. The purified streptomycin was dissolved in […]
(§17) inoculated with test organism. Growth inhibition was examined after 24 hr. from incubation at 37 °C for bacteria and after 72 hr. incubation at 27 °C for fungi and yeast. Each test was repeated three times. MIC was expressed as the lowest concentration inhibiting test organism’s growth. […]

Candida albicans [12] = assay: MIC/MFC, paper disk diffusion; format: cell-based; conditions: Candida albicans
Experimental: as §1, §11, §12, §13, §14, §15, §16, §17

[13] = test system: P. aeruginosa ATCC BAA-2111; assay: Inhibition zone against MDRB, agar plate diffusion; format: cell-based
Staphylococcus aureus [14] = assay: MIC/MBC, paper disk diffusion; format: cell-based; conditions: Staphylococcus aureus
Experimental: as §1, §11, §12, §13, §14, §15, §16, §17

Enterococcus faecalis [15] = assay: MIC/MBC, paper disk diffusion; format: cell-based
Experimental: as §1, §11, §12, §13, §14, §15, §16, §17

Bacillus subtilis [16] = assay: MIC/MBC, paper disk diffusion; format: cell-based
Experimental: as §1, §11, §12, §13, §14, §15, §16, §17

Salmonella typhi [17] = assay: MIC/MBC, paper disk diffusion; format: cell-based; conditions: Salmonella enterica, S. typhi
Experimental: as §1, §11, §12, §13, §14, §15, §16, §17

Pseudomonas aeruginosa [18] = assay: MIC/MBC, paper disk diffusion; format: cell-based; conditions: Pseudomonas aeruginosa
Experimental: as §1, §11, §12, §13, §14, §15, §16, §17

Escherichia coli [19] = assay: MIC/MBC, paper disk diffusion; format: cell-based; conditions: Escherichia coli
Experimental: as §1, §11, §12, §13, §14, §15, §16, §17

Staphylococcus aureus [20] = assay: Inhibition zone, agar plate diffusion; format: cell-based; conditions: read-out: Inhibition zone (IZ)
Experimental: as §1, §2, §3, §4, §5, §6
(§18) Bacteria were grown on nutrient agar medium, while fungi and yeast were grown on Sabouraud agar medium. […]

Fusarium oxysporum [21] = assay: Inhibition zone, agar plate diffusion; format: cell-based; conditions: read-out: Inhibition zone (IZ)
Experimental: as §1, §2, §3, §4, §5, §6, §18

Salmonella typhi [22] = assay: Inhibition zone, agar plate diffusion; format: cell-based; conditions: Salmonella enterica, St, mm ± standard deviation, sample at 0.5 mg/mL, read-out: Inhibition zone (IZ)
Experimental: as §1, §2, §3, §4, §5, §6, §18

Candida albicans [23] = assay: Inhibition zone, agar plate diffusion; format: cell-based; conditions: read-out: Inhibition zone (IZ)
Experimental: as §1, §2, §3, §4, §5, §6, §18

[24] = test system: S. aureus ATCC 43300 (MRSA); assay: Inhibition zone against MDRB, agar plate diffusion; format: cell-based

## COc1ccc(Nc2n[nH]c(N=Cc3c(C)n(C)n(-c4ccccc4)c3=O)c2C(=O)Nc2ccccc2)cc1 [6b, 5-((1,5-Dimethyl-3-oxo-2-phenyl-2,3-dihydro-1H-pyrazol-4-yl)methyleneamino)-3-(p-methoxyphenylamino)-N-phenyl-1H-pyrazole-4-carboxamide]
E. coli ATCC BAA-196 [1]
  Mean Diameter of Inhibition Zone against MDRB: 25 ± 0.15 mm
Enterococcus faecalis [2]
  zone of inhibition at 500 µg/mL: 29 ± 0.55 mm
Bacillus subtilis [3]
  zone of inhibition at 500 µg/mL: 30 ± 0.5 mm
Pseudomonas aeruginosa [4]
  zone of inhibition at 500 µg/mL: 24 ± 0.2 mm
Escherichia coli [5]
  zone of inhibition at 500 µg/mL: 25 ± 0.81 mm
E. coli ATCC BAA-196 [6]
  MBC: 7.41 µg/mL (≈ 14.2 µM)
  MIC: 3.9 µg/mL (≈ 7.48 µM)
S. aureus ATCC 33591
  MBC: 15.6 µg/mL (≈ 29.9 µM)
  MIC: 7.81 µg/mL (≈ 15 µM)
[7]
  MBC: 16 µg/mL (≈ 30.6 µM)
  MIC: 7.81 µg/mL (≈ 15 µM)
[8]
  MBC: 11.9 µg/mL (≈ 22.8 µM)
  MIC: 6.25 µg/mL (≈ 12 µM)
[9]
  IC50: 3.42 ± 0.17 µM
[10]
  IC50: 5.09 ± 0.52 µM
Fusarium oxysporum [11]
  MFC: 88.8 µg/mL (≈ 170 µM)
  MIC: 55.5 µg/mL (≈ 106 µM)
Candida albicans [12]
  MFC: 53.1 µg/mL (≈ 102 µM)
  MIC: 31.2 µg/mL (≈ 59.9 µM)
[13]
  Mean Diameter of Inhibition Zone against MDRB: 21 ± 0.66 mm
Staphylococcus aureus [14]
  MIC: 15.6 µg/mL (≈ 29.9 µM)
Staphylococcus aureus [14]; S. aureus
  MBC: 31.2 µg/mL (≈ 59.9 µM)
Enterococcus faecalis [15]
  MIC: 9.25 µg/mL (≈ 17.7 µM)
Enterococcus faecalis [15]; E. faecalis
  MBC: 18.5 µg/mL (≈ 35.5 µM)
Bacillus subtilis [16]; B. subtilis
  Fold more potent than Tetracycline (MIC): 4 fold
Bacillus subtilis [16]; Bacillus subtilis
  MIC: 7.81 µg/mL (≈ 15 µM)
Bacillus subtilis [16]; Bacillus subtilis, B. subtilis
  MBC: 14.1 µg/mL (≈ 26.9 µM)
Salmonella typhi [17]
  MIC: 15.6 µg/mL (≈ 29.9 µM)
Salmonella typhi [17]; read-out: MBC
  MBC: 28.1 µg/mL (≈ 53.9 µM)
Pseudomonas aeruginosa [18]
  MIC: 31.2 µg/mL (≈ 59.9 µM)
Pseudomonas aeruginosa [18]; P. aeruginosa
  MBC: 53.1 µg/mL (≈ 102 µM)
Escherichia coli [19]
  MIC: 62.5 µg/mL (≈ 120 µM)
Escherichia coli [19]; E. coli
  MBC: 87.5 µg/mL (≈ 168 µM)
Staphylococcus aureus [20]
  zone of inhibition at 500 µg/mL: 24 ± 0.12 mm
Fusarium oxysporum [21]
  zone of inhibition at 500 µg/mL: 18 ± 0.15 mm
Salmonella typhi [22]
  zone of inhibition at 500 µg/mL: 20 ± 0.16 mm
Candida albicans [23]
  zone of inhibition at 500 µg/mL: 22 ± 0.56 mm
[24]
  Mean Diameter of Inhibition Zone against MDRB: 21 ± 0.21 mm
